This is an account of results in patent US20240208992A1, “MACROCYCLES AS CFTR MODULATORS” (Idorsia Pharmaceuticals Ltd, priority 2021, published 2024).

For the assay, the target named is human F508del-CFTR (Homo sapiens, UniProt P13569, DEL508-508). Put plainly: F508del-CFTR cell surface expression (corrector activity), DiscoveRx ß-galactosidase complementation chemiluminescence assay in recombinant U2OS cell line.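 As to all read-outs here: U2OS cells co-expressing ProLink-tagged F508del-CFTR and a membrane-anchored enzyme acceptor, where more surface CFTR restores β-galactosidase activity measured by chemiluminescence.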 Conditions: U2OS cell line, 16h compound incubation; for EC50: EC50, F508del-CFTR cell surface expression, geomean values; for Emax: U2OS, in relation to the Emax of the corrector lumacaftor (=100%), arithmetic mean values.

Usually EC50 stands for the concentration that produces a half-maximal response. Broadly, the Emax is the size of the effect at its maximum, as opposed to the concentration needed.

human F508del-CFTR, sequence (P13569 with tags, fused parts or gaps DEL508-508): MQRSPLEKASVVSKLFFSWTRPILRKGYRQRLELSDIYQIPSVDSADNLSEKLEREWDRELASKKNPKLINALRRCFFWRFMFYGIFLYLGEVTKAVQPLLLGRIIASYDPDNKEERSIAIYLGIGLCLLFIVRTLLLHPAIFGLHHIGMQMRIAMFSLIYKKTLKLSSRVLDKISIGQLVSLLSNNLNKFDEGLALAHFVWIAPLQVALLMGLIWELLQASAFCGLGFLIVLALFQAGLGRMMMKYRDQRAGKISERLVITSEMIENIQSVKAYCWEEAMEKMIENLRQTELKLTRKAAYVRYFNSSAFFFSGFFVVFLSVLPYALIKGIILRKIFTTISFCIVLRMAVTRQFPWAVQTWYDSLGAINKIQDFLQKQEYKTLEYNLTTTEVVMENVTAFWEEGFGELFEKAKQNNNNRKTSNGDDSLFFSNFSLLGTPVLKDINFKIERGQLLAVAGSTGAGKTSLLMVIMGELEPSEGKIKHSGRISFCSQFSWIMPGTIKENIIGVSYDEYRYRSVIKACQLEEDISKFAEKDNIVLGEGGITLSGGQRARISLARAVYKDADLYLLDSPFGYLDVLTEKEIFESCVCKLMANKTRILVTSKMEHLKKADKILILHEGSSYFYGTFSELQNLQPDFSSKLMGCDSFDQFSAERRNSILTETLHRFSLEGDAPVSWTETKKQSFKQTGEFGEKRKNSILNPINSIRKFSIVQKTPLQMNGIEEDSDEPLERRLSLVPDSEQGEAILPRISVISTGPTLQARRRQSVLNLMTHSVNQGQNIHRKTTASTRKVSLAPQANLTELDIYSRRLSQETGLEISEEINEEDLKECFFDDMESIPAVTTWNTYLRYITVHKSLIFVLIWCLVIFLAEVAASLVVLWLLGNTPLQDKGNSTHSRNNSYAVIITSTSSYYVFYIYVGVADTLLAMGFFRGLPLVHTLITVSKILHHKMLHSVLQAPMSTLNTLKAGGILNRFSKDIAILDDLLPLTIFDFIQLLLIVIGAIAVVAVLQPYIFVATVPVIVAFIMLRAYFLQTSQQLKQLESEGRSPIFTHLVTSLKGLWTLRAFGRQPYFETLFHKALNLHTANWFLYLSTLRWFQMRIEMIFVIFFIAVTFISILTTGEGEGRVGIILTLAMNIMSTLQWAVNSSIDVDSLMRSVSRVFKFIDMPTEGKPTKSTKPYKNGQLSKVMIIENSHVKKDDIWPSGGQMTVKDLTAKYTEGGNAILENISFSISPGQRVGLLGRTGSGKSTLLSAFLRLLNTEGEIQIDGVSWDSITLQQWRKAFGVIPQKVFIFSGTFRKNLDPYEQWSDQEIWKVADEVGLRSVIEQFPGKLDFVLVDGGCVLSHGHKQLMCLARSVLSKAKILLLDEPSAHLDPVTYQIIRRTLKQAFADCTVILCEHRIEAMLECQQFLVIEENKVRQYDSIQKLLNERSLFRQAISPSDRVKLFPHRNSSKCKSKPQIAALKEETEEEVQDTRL

In the case of `CC(C)C[C@H]1C(=O)N2CCOC[C@@H]2C(=O)N[C@H](Cc2ccccc2)COc2cnc3ccccc3c2C(=O)N[C@H](C(=O)NCCc2ccc(-n3nccn3)cc2)CC(=O)N1C` [Example 55, (9S,13S,19aR,22R)-N-(4-(2H-1,2,3-triazol-2-yl)phenethyl)-22-benzyl-13-isobutyl-12-methyl-7,11,14,20-tetraoxo-7,8,9,10,11,12,13,14,16,17,19,19a,20,21,22,23-hexadecahydro-[1,4]oxazino[3′,4′:6,7][1]oxa[4,7,10,14]tetraazacycloheptadecino[17,16-c]quinoline-9-carboxamide], the half-maximal effective concentration (EC50) amounted to 945 nM and the maximal effect (Emax) came out at 245%.
Regarding `CC(C)C[C@H]1C(=O)N2CCOC[C@@H]2C(=O)N[C@H](Cc2ccccc2)COc2cnc3ccccc3c2C(=O)N[C@H](C(=O)NCCc2cccc(-n3nccn3)c2)CC(=O)N1C` [Example 56, (9S,13S,19aR,22R)-N-(3-(2H-1,2,3-triazol-2-yl)phenethyl)-22-benzyl-13-isobutyl-12-methyl-7,11,14,20-tetraoxo-7,8,9,10,11,12,13,14,16,17,19,19a,20,21,22,23-hexadecahydro-[1,4]oxazino[3′,4′:6,7][1]oxa[4,7,10,14]tetraazacycloheptadecino[17,16-c]quinoline-9-carboxamide], the 50% effective concentration (EC50) is 764 nM and the Emax is 256%.
On the same counts, the results for `COc1cc(CCNC(=O)[C@@H]2CC(=O)N(C)[C@@H](CC(C)C)C(=O)N3CCOC[C@@H]3C(=O)N[C@H](Cc3ccccc3)COc3cnc4ccccc4c3C(=O)N2)cc(OC)c1` [Example 57, (9S,13S,19aR,22R)-22-benzyl-N-(3,5-dimethoxyphenethyl)-13-isobutyl-12-methyl-7,11,14,20-tetraoxo-7,8,9,10,11,12,13,14,16,17,19,19a,20,21,22,23-hexadecahydro-[1,4]oxazino[3′,4′:6,7][1]oxa[4,7,10,14]tetraazacycloheptadecino[17,16-c]quinoline-9-carboxamide] are 414 nM and 315%.
For `CC(C)C[C@H]1C(=O)N2CCOC[C@@H]2C(=O)N[C@H](Cc2ccccc2)COc2cnc3ccccc3c2C(=O)N[C@H](C(=O)NCCc2ccccc2)CC(=O)N1C` [Example 58, (9S,13S,19aR,22R)-22-benzyl-13-isobutyl-12-methyl-7,11,14,20-tetraoxo-N-phenethyl-7,8,9,10,11,12,13,14,16,17,19,19a,20,21,22,23-hexadecahydro-[1,4]oxazino[3′,4′:6,7][1]oxa[4,7,10,14]tetraazacycloheptadecino[17,16-c]quinoline-9-carboxamide] the same measures were 759 nM and 175%.
For the compound `COc1ccc(CCNC(=O)[C@@H]2CC(=O)N(C)[C@@H](CC(C)C)C(=O)N3CCOC[C@@H]3C(=O)N[C@H](Cc3ccccc3)COc3cnc4ccccc4c3C(=O)N2)c(F)c1` [Example 59, (9S,13S,19aR,22R)-22-benzyl-N-(2-fluoro-4-methoxyphenethyl)-13-isobutyl-12-methyl-7,11,14,20-tetraoxo-7,8,9,10,11,12,13,14,16,17,19,19a,20,21,22,23-hexadecahydro-[1,4]oxazino[3′,4′:6,7][1]oxa[4,7,10,14]tetraazacycloheptadecino[17,16-c]quinoline-9-carboxamide], the EC50 worked out at 772 nM and the Emax came to 237%.
On the same counts, the results for `Cc1ccc(CCNC(=O)[C@@H]2CC(=O)N(C)[C@@H](CC(C)C)C(=O)N3CCOC[C@@H]3C(=O)N[C@H](Cc3ccccc3)COc3cnc4ccccc4c3C(=O)N2)cc1` [Example 60, (9S,13S,19aR,22R)-22-benzyl-13-isobutyl-12-methyl-N-(4-methylphenethyl)-7,11,14,20-tetraoxo-7,8,9,10,11,12,13,14,16,17,19,19a,20,21,22,23-hexadecahydro-[1,4]oxazino[3′,4′:6,7][1]oxa[4,7,10,14]tetraazacycloheptadecino[17,16-c]quinoline-9-carboxamide] are 662 nM and 228%.
For `Cc1ccc(CCNC(=O)[C@@H]2CC(=O)N(C)[C@@H](CC(C)C)C(=O)N3CCOC[C@@H]3C(=O)N[C@H](Cc3ccccc3)COc3cnc4ccccc4c3C(=O)N2)cc1C` [Example 61, (9S,13S,19aR,22R)-22-benzyl-N-(3,4-dimethylphenethyl)-13-isobutyl-12-methyl-7,11,14,20-tetraoxo-7,8,9,10,11,12,13,14,16,17,19,19a,20,21,22,23-hexadecahydro-[1,4]oxazino[3′,4′:6,7][1]oxa[4,7,10,14]tetraazacycloheptadecino[17,16-c]quinoline-9-carboxamide] the same measures were 421 nM and 202%.
For `Cc1cccc(CCNC(=O)[C@@H]2CC(=O)N(C)[C@@H](CC(C)C)C(=O)N3CCOC[C@@H]3C(=O)N[C@H](Cc3ccccc3)COc3cnc4ccccc4c3C(=O)N2)c1` [Example 62, (9S,13S,19aR,22R)-22-benzyl-13-isobutyl-12-methyl-N-(3-methylphenethyl)-7,11,14,20-tetraoxo-7,8,9,10,11,12,13,14,16,17,19,19a,20,21,22,23-hexadecahydro-[1,4]oxazino[3′,4′:6,7][1]oxa[4,7,10,14]tetraazacycloheptadecino[17,16-c]quinoline-9-carboxamide] the same measures were 809 nM and 222%.
`Cc1ccc(CCNC(=O)[C@@H]2CC(=O)N(C)[C@@H](CC(C)C)C(=O)N3CCOC[C@@H]3C(=O)N[C@H](Cc3ccccc3)COc3cnc4ccccc4c3C(=O)N2)c(C)c1` [Example 63, (9S,13S,19aR,22R)-22-benzyl-N-(2,4-dimethylphenethyl)-13-isobutyl-12-methyl-7,11,14,20-tetraoxo-7,8,9,10,11,12,13,14,16,17,19,19a,20,21,22,23-hexadecahydro-[1,4]oxazino[3′,4′:6,7][1]oxa[4,7,10,14]tetraazacycloheptadecino[17,16-c]quinoline-9-carboxamide]: the concentration giving a half-maximal response (EC50) is 418 nM and the maximum response (Emax) amounted to 250%.
Regarding `Cc1ccccc1CCNC(=O)[C@@H]1CC(=O)N(C)[C@@H](CC(C)C)C(=O)N2CCOC[C@@H]2C(=O)N[C@H](Cc2ccccc2)COc2cnc3ccccc3c2C(=O)N1` [Example 64, (9S,13S,19aR,22R)-22-benzyl-13-isobutyl-12-methyl-N-(2-methylphenethyl)-7,11,14,20-tetraoxo-7,8,9,10,11,12,13,14,16,17,19,19a,20,21,22,23-hexadecahydro-[1,4]oxazino[3′,4′:6,7][1]oxa[4,7,10,14]tetraazacycloheptadecino[17,16-c]quinoline-9-carboxamide], the EC50 is 441 nM and the Emax is 143%.
For `COc1cccc(CCNC(=O)[C@@H]2CC(=O)N(C)[C@@H](CC(C)C)C(=O)N3CCOC[C@@H]3C(=O)N[C@H](Cc3ccccc3)COc3cnc4ccccc4c3C(=O)N2)c1OC` [Example 65, (9S,13S,19aR,22R)-22-benzyl-N-(2,3-dimethoxyphenethyl)-13-isobutyl-12-methyl-7,11,14,20-tetraoxo-7,8,9,10,11,12,13,14,16,17,19,19a,20,21,22,23-hexadecahydro-[1,4]oxazino[3′,4′:6,7][1]oxa[4,7,10,14]tetraazacycloheptadecino[17,16-c]quinoline-9-carboxamide] the same measures were 647 nM and 282%.
